Publication PMC10952582, “Pregnenolone sulfate analogues differentially modulate GABAA receptor closed/desensitised states” (British Journal of Pharmacology, 2023)

How the values were obtained:
α1V296Lβ3γ2L GABAAR [1] = target: T1, α1V296Lβ3γ2L GABAAR (Mus musculus, UniProt P62812, V323L); experiment: Whole-cell voltage-clamp electrophysiology, minimally desensitising mutant α1V296Lβ3γ2L in HEK cells; type: cell-based, murine
T1 construct: expressed in transfected cells; host or cells: HEK 293 cells (ATCC CRL-1573)
Protocol: (§1) HEK 293 cells (ATCC Cat# CRL‐1573, RRID:CVCL_0045) were maintained and transfected under standard conditions. In brief, cells were grown in monolayers in Dulbecco's modified Eagle's medium supplemented with 10% v/v fetal calf serum, 100 U·ml^−1 of penicillin‐G and 100 μg·ml^−1 of streptomycin and incubated at 37°C in humidified 95% air/5% CO2.
(§2) Before transfection, HEK cells were plated onto 22 mm of glass coverslips (VWR) coated in poly‐L‐lysine (Sigma). Cells were transfected with α1 (wild‐type [wt] or mutant [mut]), β3 (wt), γ2L (wt or mut) and enhanced green fluorescent protein (eGFP) in an equimolar ratio (1:1:1:1), using a calcium‐phosphate precipitation protocol. The transfection solution was prepared from 4 μg of cDNA per coverslip, 20 μl of 340 mM of CaCl2 and 24 μl of 2× HEPES‐buffered saline (HBS) (50 mM of HEPES, 280 mM of NaCl and 2.8 mM of Na2HPO4). Cells were selected for electrophysiology after 16–30 h based on their morphology and moderate GFP fluorescence.
(§3) Coverslips with transfected HEK cells were transferred into a recording chamber on a Nikon Eclipse FN1 microscope with a 470‐nm LED for GFP fluorescence. Cells were continuously perfused with Krebs solution containing (mM) 140 NaCl, 4.7 KCl, 1.2 MgCl2, 2.52 CaCl2, 11 glucose and 5 HEPES (pH 7.4). Patch pipettes (thin‐walled filamented borosilicate glass capillaries; TW150F‐4; WPI, USA; 3–4 MΩ) were filled with an intracellular solution containing (mM) 140 CsCl, 2 NaCl, 2 MgCl2, 5 EGTA, 10 HEPES, 0.5 CaCl2, 2 Na‐ATP and 0.5 Na‐GTP (pH 7.2). Drugs were applied to cells using a Y‐tube delivery system (Mortensen & Smart, [2007]), with the PS analogues pre‐applied 10–12 s before co‐application with GABA.
(§4) HEK cells were voltage clamped at −30 mV using an Axopatch 200B amplifier (Molecular Devices, USA), and whole‐cell currents were filtered at 5 kHz (−36 dB), digitised at 50 kHz via a Digidata 1322A (Molecular Devices) and recorded to a Dell Optiplex 990 using Clampex 10.2 (Molecular Devices). Series resistance was compensated at 60%–70%, and only data with <20% deviation in series resistance would be included in subsequent analyses.
(§5) Weighted time constants for the decay phase (τw) were calculated by fitting a biexponential curve to the current decay waveform and applying the following equation: τw=A1.τ1+A2.τ2/A1+A2, where τ1 and τ2 represent time constants for the two exponential components of the decay phase and A1 and A2 are their relative area contributions.
(§6) Current responses from voltage‐clamp experiments were measured, and decays fitted using ClampFit 10.2 (Molecular Devices) to determine the respective time constants. In Origin, data were plotted as concentration–response curves, and curves fitted using the following inhibition equation: I/Imax=1−B^n/IC50^n+B^n, where I is the current response, B is the concentration of the PS analogue, n is the slope coefficient and IC50 is the analogue concentration producing 50% inhibition of GABA current (inhibitory potency). Potency values are presented as pIC50 with SEM values. The mean was transformed into a molar concentration by pIC50 = −log IC50. Other data are represented as the mean ± SEM.

α1β3γ2L GABAAR [2] = target: T2, α1β3γ2L GABAAR (Mus musculus, UniProt P62812); experiment: Whole-cell voltage-clamp electrophysiology, wild-type α1β3γ2L GABAARs expressed in HEK cells; type: cell-based, murine; settings: for mean (weighted) decay time (τw) of GABA current: 1 nM PS analogue, 30 μM GABA
T2 construct: expressed in transfected cells; host or cells: HEK 293 cells (ATCC CRL-1573)
Protocol: as §1, §2, §3, §4, §5, §6

α1β3γ2LV262F GABAAR = target: T3, α1β3γ2LV262F GABAAR (Mus musculus, UniProt P62812); experiment: Whole-cell voltage-clamp electrophysiology, highly desensitising mutant α1β3γ2LV262F in HEK cells; type: cell-based, murine
T3 construct: expressed in transfected cells; host or cells: HEK 293 cells (ATCC CRL-1573)
Protocol: as §1, §2, §3, §4, §5, §6

α1β3γ2L GABAAR [3] = target: T4, α1β3γ2L GABAAR (Mus musculus, UniProt P22723+P62812+P63080); experiment: Whole-cell voltage-clamp electrophysiology, wild-type α1β3γ2L GABAARs expressed in HEK cells; type: cell-based, murine
T4 construct: expressed in transfected cells; host or cells: HEK 293 cells (ATCC CRL-1573)
Protocol: as §1, §2, §3, §4, §5, §6

α1β3γ2L GABAAR [4] = target: T2, α1β3γ2L GABAAR; experiment: Kinetic modelling and waveform fitting of GABA currents (ChanneLab); set-up: species or system murine; settings: waveform fit
Protocol: We used ChanneLab (Version 2.2; Synaptosoft) to build relatively simple kinetic models of the GABAAR. To explore the functional behaviour of PS analogues (compounds) 5 and 6, we incorporated concentration‐dependent PS analogue‐bound states into the model. Simulated currents were generated in ChanneLab and explored at different GABA and PS analogue concentrations. These were evaluated against GABA currents generated under experimental conditions, using the waveform fitting function in ChanneLab. Rate constants connecting receptor states were determined initially empirically with reference to previously published values and varied individually to optimise the fit to the data (seed values) prior to using waveform fitting and Runge–Kutta numerical integration (RK5) to eventually simulate the experimental GABA current profiles with 50 iterations. GABA‐activated membrane currents were fitted over their full timecourse of 20 s.
To investigate, simplified GABAAR models were constructed, incorporating some or all the following receptor states: an unbound closed state (R); GABA‐bound closed ‘composite’ state (RA) that incorporates one or more preactivation states that are not explicitly indicated or a closed (RA) and separate preactivated (RfA) state; a GABA‐bound activated state (RA*); and a desensitised state (RD) accessed via the receptor's activated state. These simple models enable the generation of simulated GABA‐dependent currents, with values for the rate constants determined initially empirically in broad accord with published parameters and manually adjusted to provide seed values before performing waveform fitting with unconstrained rate constants (Figure 8a).
RA* is the activated receptor open channel before moving to a desensitised state RD.

α1F295Aβ3γ2L GABAAR = target: T5, α1F295Aβ3γ2L GABAAR (Mus musculus, UniProt P22723+P62812+P63080, F322A); experiment: Whole-cell voltage-clamp electrophysiology, mutant α1F295Aβ3γ2L in HEK cells; type: cell-based, murine
T5 construct: expressed in transfected cells; host or cells: HEK 293 cells (ATCC CRL-1573)
Protocol: as §1, §2, §3, §4, §5, §6

α1V296Lβ3γ2L GABAAR [5] = target: T6, α1V296Lβ3γ2L GABAAR (Mus musculus, UniProt P22723+P62812+P63080, V323L); experiment: Whole-cell voltage-clamp electrophysiology, minimally desensitising mutant α1V296Lβ3γ2L in HEK cells; type: cell-based, murine
T6 construct: expressed in transfected cells; host or cells: HEK 293 cells (ATCC CRL-1573)
Protocol: as §1, §2, §3, §4, §5, §6

α1F399Aβ3γ2L GABAAR = target: T7, α1F399Aβ3γ2L GABAAR (Mus musculus, UniProt P22723+P62812+P63080, F426A); experiment: Whole-cell voltage-clamp electrophysiology, mutant α1F399Aβ3γ2L in HEK cells; type: cell-based, murine
T7 construct: expressed in transfected cells; host or cells: HEK 293 cells (ATCC CRL-1573)
Protocol: as §1, §2, §3, §4, §5
Current responses from voltage‐clamp experiments were measured, and decays fitted using ClampFit 10.2 (Molecular Devices) to determine the respective time constants. […]

[6] = target: T8, α1F295A, F399Aβ3γ2L GABAAR (Mus musculus, UniProt P22723+P62812+P63080, F322A/F426A); experiment: Whole-cell voltage-clamp electrophysiology, mutant α1F295A,F399Aβ3γ2L in HEK cells; type: cell-based, murine
T8 construct: expressed in transfected cells; host or cells: HEK 293 cells (ATCC CRL-1573)
Protocol: as §1, §2, §3, §4, §5, §6

[7] = steady-state current after 20 s of 1 mM GABA
[8] = Decay inhibition (pIC50), potency for reducing GABA current weighted decay time constant, 30 μM GABA
[9] = Peak inhibition (IC50), peak current evoked by 30 μM GABA, analogue pre-applied 10–12 s and co-applied
[10] = Peak inhibition (pIC50), peak current evoked by 30 μM GABA, analogue pre-applied 10–12 s and co-applied
[11] = Steady-state inhibition (pIC50), GABA current after 20 s of 30 μM GABA (near steady state)
[12] = Steady-state inhibition (IC50), GABA current after 20 s of 30 μM GABA (near steady state)
[13] = Decay inhibition (pIC50), GABA current weighted decay time constant
[14] = Steady-state inhibition (pIC50), 30 μM GABA, 20 s
[15] = Steady-state inhibition (pIC50), steady-state GABA current
[16] = Decay inhibition (IC50), GABA current weighted decay time constant

T7 sequence (P62812 28-455 F426A): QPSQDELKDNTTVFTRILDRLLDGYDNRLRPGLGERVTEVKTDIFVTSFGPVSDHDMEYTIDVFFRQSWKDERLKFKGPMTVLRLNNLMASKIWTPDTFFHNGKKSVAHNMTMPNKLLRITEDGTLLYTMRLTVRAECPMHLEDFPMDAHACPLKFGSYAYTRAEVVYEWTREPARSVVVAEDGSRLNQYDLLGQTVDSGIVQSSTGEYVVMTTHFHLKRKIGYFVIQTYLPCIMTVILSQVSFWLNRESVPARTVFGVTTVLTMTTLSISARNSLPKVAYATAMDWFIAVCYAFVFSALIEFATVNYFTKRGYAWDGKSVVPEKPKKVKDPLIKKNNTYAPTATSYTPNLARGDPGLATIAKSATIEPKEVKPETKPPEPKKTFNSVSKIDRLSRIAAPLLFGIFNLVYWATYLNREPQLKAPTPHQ
T7 sequence (P63080 26-473 partner): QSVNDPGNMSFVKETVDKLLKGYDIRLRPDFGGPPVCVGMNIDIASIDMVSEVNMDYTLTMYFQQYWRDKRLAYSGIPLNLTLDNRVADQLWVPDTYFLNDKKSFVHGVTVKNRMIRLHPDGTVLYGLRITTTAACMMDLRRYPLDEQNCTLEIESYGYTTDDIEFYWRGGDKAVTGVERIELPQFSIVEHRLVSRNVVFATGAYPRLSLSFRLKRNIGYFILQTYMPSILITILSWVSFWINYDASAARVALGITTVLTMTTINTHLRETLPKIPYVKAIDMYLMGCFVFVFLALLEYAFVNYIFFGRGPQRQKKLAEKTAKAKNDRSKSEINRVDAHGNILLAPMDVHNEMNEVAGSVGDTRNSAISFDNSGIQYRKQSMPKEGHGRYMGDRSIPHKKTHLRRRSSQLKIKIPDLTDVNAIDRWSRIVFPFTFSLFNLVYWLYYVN
T7 sequence (P22723 39-474 partner): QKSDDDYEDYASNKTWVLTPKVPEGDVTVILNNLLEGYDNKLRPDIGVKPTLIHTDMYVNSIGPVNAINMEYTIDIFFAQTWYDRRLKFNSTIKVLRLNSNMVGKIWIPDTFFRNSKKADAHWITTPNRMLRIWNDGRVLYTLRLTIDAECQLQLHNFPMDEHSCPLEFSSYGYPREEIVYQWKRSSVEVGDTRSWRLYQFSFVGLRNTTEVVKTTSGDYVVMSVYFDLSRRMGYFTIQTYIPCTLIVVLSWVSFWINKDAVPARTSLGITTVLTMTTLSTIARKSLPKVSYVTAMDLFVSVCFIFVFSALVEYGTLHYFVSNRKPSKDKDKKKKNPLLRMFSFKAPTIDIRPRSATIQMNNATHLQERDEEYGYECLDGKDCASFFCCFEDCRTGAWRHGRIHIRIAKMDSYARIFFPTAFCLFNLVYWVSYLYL
T5 sequence (P62812 28-455 F322A): as the sequence (P62812 28-455 F426A) above, with F295A, A399F counted along it
T5 sequence (P63080 26-473 partner): as the sequence (P63080 26-473 partner) above
T5 sequence (P22723 39-474 partner): as the sequence (P22723 39-474 partner) above
T6 sequence (P62812 28-455 V323L): as the sequence (P62812 28-455 F426A) above, with V296L, A399F counted along it
T6 sequence (P63080 26-473 partner): as the sequence (P63080 26-473 partner) above
T6 sequence (P22723 39-474 partner): as the sequence (P22723 39-474 partner) above
T8 sequence (P62812 28-455 F322A/F426A): as the sequence (P62812 28-455 F426A) above, with F295A counted along it
T8 sequence (P63080 26-473 partner): as the sequence (P63080 26-473 partner) above
T8 sequence (P22723 39-474 partner): as the sequence (P22723 39-474 partner) above
T3 sequence (P62812 28-455): as the sequence (P62812 28-455 F426A) above, with A399F counted along it
T3 sequence (P63080 26-473 partner): as the sequence (P63080 26-473 partner) above
T3 sequence (P22723 39-474 V300F partner): as the sequence (P22723 39-474 partner) above, with V262F counted along it
T4 sequence (P62812 28-455): as the sequence (P62812 28-455 F426A) above, with A399F counted along it
T4 sequence (P63080 26-473 partner): as the sequence (P63080 26-473 partner) above
T4 sequence (P22723 39-474 partner): as the sequence (P22723 39-474 partner) above
T2 sequence (P62812 28-455): as the sequence (P62812 28-455 F426A) above, with A399F counted along it
T2 sequence (P63080 26-473 partner): as the sequence (P63080 26-473 partner) above
T2 sequence (P22723 39-474 partner): as the sequence (P22723 39-474 partner) above
T1 sequence (P62812 28-455 V323L): as the sequence (P62812 28-455 F426A) above, with V296L, A399F counted along it
T1 sequence (P63080 26-473 partner): as the sequence (P63080 26-473 partner) above
T1 sequence (P22723 39-474 partner): as the sequence (P22723 39-474 partner) above

SMILES	IC50 (α1β3γ2L GABAAR [3]; [8])	IC50 (α1β3γ2L GABAAR [3]; [9])	IC50 (α1β3γ2L GABAAR [3]; [10])	IC50 (α1β3γ2L GABAAR [3]; [11])	mean (weighted) decay time (τw) of GABA current (α1β3γ2L GABAAR [2])	IC50 (α1β3γ2L GABAAR [3]; [12])	IC50 (α1F295Aβ3γ2L GABAAR; [13])	IC50 (α1F295Aβ3γ2L GABAAR; [14])	IC50 (α1F399Aβ3γ2L GABAAR; [13])	IC50 (α1F399Aβ3γ2L GABAAR; [14])	IC50 [6, 13]	IC50 [6, 14]	IC50 (α1β3γ2LV262F GABAAR; [13])	IC50 (α1β3γ2LV262F GABAAR; [15])	other results
NCCCC(=O)O [GABA, γ‐Aminobutyric acid]	–	–	–	–	–	–	–	–	–	–	–	–	–	–	mean weighted decay time constant (τw) of GABA current (α1V296Lβ3γ2L GABAAR [1]; 1 mM GABA, 20 s): 7.4 ± 1.3 s; extent of macroscopic desensitisation (α1V296Lβ3γ2L GABAAR [1]; [7]): 39 ± 6.0%; mean weighted decay time constant (τw) of GABA current (α1β3γ2L GABAAR [2]; wild-type α1β3γ2L, 1 mM GABA, 20 s): 3.7 ± 0.17 s; extent of macroscopic desensitisation (α1β3γ2L GABAAR [2]; wild-type α1β3γ2L, steady-state current after 20 s of 1 mM GABA): 68 ± 1.6%; mean weighted decay time constant (τw) of GABA current (α1β3γ2LV262F GABAAR; 1 mM GABA, 20 s): 2.3 ± 0.28 s; extent of macroscopic desensitisation (α1β3γ2LV262F GABAAR; [7]): 89 ± 1.3%
CC12CCC(OS(=O)(=O)O)CC1=CCC1C2CCC2(C)C(C(=O)CBr)CCC12 (centres unmarked) [compound 2]	0.875 µM	2.7 µM	2.65 µM	0.279 µM	3.8 ± 0.2 s	–	–	–	–	–	–	–	–	–	IC50 (α1β3γ2L GABAAR [3]; Decay inhibition (IC50), potency for reducing GABA current weighted decay time constant, 30 μM GABA): 0.88 µM
C[C@]12CC[C@H](OS(=O)(=O)O)CC1=CCC1C2CC[C@@]2(C)C1CC[C@@H]2C(=O)Cn1ccnc1 (some centres unmarked) [compound 3]	8.51 µM	743 µM	–	0.891 µM	3.8 ± 0.8 s	~1 µM	–	–	–	–	–	–	–	–	–
C[C@]12CC[C@H](OS(=O)(=O)O)CC1=CCC1C2CC[C@@]2(C)C1CC[C@@H]2C(=O)CN1CCOCC1 (some centres unmarked) [compound 5]	117 µM	–	~2000 µM	0.843 µM	3.7 ± 0.1 s	~1 µM	8.47 µM	2.93 µM	7.89 µM	8.36 µM	7.21 µM	5.22 µM	70.8 µM	14.2 µM	rate constant k2, Model (b) (α1β3γ2L GABAAR [4]; Model (b): binding to RA forming RAP, then RAPd, 30 μM GABA): 62900 M⁻¹ s⁻¹; rate constant k3, Model (b) (α1β3γ2L GABAAR [4]; Model (b), 30 μM GABA): 921000 s⁻¹; IC50 (α1V296Lβ3γ2L GABAAR [5]; [13]): 3.24 µM; IC50 (α1V296Lβ3γ2L GABAAR [5]; [15]): 20.7 µM
C[C@]12CC[C@H](OS(=O)(=O)O)CC1=CCC1C2CC[C@@]2(C)C1CC[C@@H]2C(=O)Cn1cccn1 (some centres unmarked) [compound 6]	1.66 µM	–	220 ± 14.6 µM	1.13 µM	3.8 ± 0.2 s	~1 µM	1.35 µM	4.51 µM	1.49 µM	7.29 µM	1.23 µM	4.15 µM	2.88 µM	25.1 µM	rate constant k4, Model (c) (α1β3γ2L GABAAR [4]; Model (c): binding to RA (RAP) and RD (RDP), 30 μM GABA): 234000 M⁻¹ s⁻¹; rate constant k2, Model (c) (α1β3γ2L GABAAR [4]; Model (c), 30 μM GABA): 129000 M⁻¹ s⁻¹; rate constant k‐4, Model (c) (α1β3γ2L GABAAR [4]; Model (c), 30 μM GABA): 184 s⁻¹; rate constant k2, Model (d) (α1β3γ2L GABAAR [4]; Model (d): binding to preactivated state RfA (RfAP) and RD): 173000 M⁻¹ s⁻¹; rate constant k4, Model (d) (α1β3γ2L GABAAR [4]; Model (d)): 184000 M⁻¹ s⁻¹; rate constant k‐4, Model (d) (α1β3γ2L GABAAR [4]; Model (d)): 307 s⁻¹; IC50 (α1F295Aβ3γ2L GABAAR; [16]): 1.4 µM; IC50 (α1V296Lβ3γ2L GABAAR [5]; [16]): > 100 µM; IC50 (α1V296Lβ3γ2L GABAAR [5]; Steady-state inhibition (IC50), steady-state GABA current): > 100 µM; IC50 ([6]; Steady-state inhibition (IC50), 30 μM GABA, 20 s): 4.2 µM; fold difference in current decay potency, compound 6 vs compound 5 (α1β3γ2L GABAAR [2]; wild-type α1β3γ2L, decay IC50 of 5 vs 6): 70 fold
CC12CCC(OS(=O)(=O)O)CC1=CCC1C2CCC2(C)C(C(=O)Cn3cccc3)CCC12 (centres unmarked) [compound 8]	3.23 µM	–	33.3 µM	0.236 µM	3.6 ± 0.3 s	–	–	–	–	–	–	–	–	–	–
